Source: patent US20150352107A1, “ALPHA7 NEURONAL NICOTINIC RECEPTOR LIGAND AND ANTIPSYCHOTIC COMPOSITIONS” (AbbVie Inc., priority 2005, published 2015)
“Also recorded” adds a separate entry of the source. Like-named read-outs stand apart in the source and are kept apart here.

Assays:
[1] = cited from earlier work; for Optimal Dose and/or Minimally Effective Dose / EPS risk: dose of augmented risk: clinical use
DBA/2J mice = test: Prepulse inhibition (PPI) of startle in DBA/2 mice; type: in vivo, mouse; settings: for dose at which efficacy was observed in DBA2 mouse PPI: i.p., antipsychotic alone, FIG. 1
Source text: Dysfunctions of sensory gating and information processing have been putatively associated with clinical features such as perpetual aberrations, hallucinations and distraction and been considered as potential precursors of sensory overload, cognitive fragmentation and disorganization. Among the physiological measures, one approach has involved the startle reflex with the prepulse inhibition (PPI) paradigm. […] PPI refers to a reduction in the acoustic startle reflex to a loud noise when the loud noise is preceded by a weak auditory stimulus. At short lead intervals, this has the effect of markedly reducing or gating the amplitude of the startle response and increasing its latency. Disruption of PPI occurs with agonists of dopamine and serotonin, and with glutamate/N-methyl D aspartate (NMDA) receptor antagonists, or can be induced by genetic (e.g., DBA2 mouse strain) and experimental manipulations (e.g., rearing rats in isolation, neurotoxic lesions, or other methods). […] (Olivier B., et al., Psychopharmacology (2001) vol. 156:284-290; Ouagazzal A-M., Psychopharmacology (2001) vol. 156:273-283; Simosky J. K., Psychopharmacology (2003) vol. 165:386-396). To accomplish the study, the following materials and methods were used.
Male DBA/2J mice (Jackson Laboratories AX9 facility, Bar Harbor, Me., USA) at age 6-8 weeks old were used for all investigations.
Startle response and PPI were measured using startle chambers from Hamilton Kinder (Poway, Calif., USA). Each chamber contained a plexiglas rectangle with an adjustable ceiling housed in a ventilated, sound-attenuated cubicle. The ceiling was adjusted on an individual (animal by animal) basis to allow for adequate headroom but no rears or extensive locomotion. The chamber was placed over an anchor plate attached to a piezoelectric disk to transduce startle responses to a computer. A loudspeaker located in each chamber delivered the background noise (65 dB), and the acoustic stimuli. A constant white noise was maintained in the experimental room for the duration of the experiment by a white noise generator (Radioshack, USA). Each session was initiated with a 5-minute acclimation period followed by four successive 120 dB, 40 ms trials. These trials were not included in the main analysis, but are referred to as baseline responses. Animals were then presented with 5 different trial types: startle pulse (120 dB, 40), or prepulse stimulus of one of three sound levels (70, 75, or 80 dB) for 20 ms, followed 100 ms later by an acoustic startle (120 dB) for 40 ms. A total of 12 trials under each condition were delivered in a random sequence and all trials were separated by a variable inter-trial interval of 5-25 s. Finally, this sequence ended with the presentation of four 120 dB, 40 ms sound bursts (not included in the main analyses, but included in the baseline or habituation analyses). The animals were injected with the test compounds 30 minutes before the start of the trials. In the startle alone trials, the basic auditory startle, or startle response was measured, and in the prepulse plus startle trials, the levels of PPI was calculated as a percentage score for each acoustic prepulse trial type using (typically) the formula: […].
Data were first analyzed using a two-way repeated measures analysis of variance (ANOVA) with two independent factors. If there was a significant interaction of both factors, subsequent post hoc one-way ANOVAs were performed using each treatment combination as an independent group. All post hoc significance was determined using Fishers protected least significant difference test. (p<0.05 was regarded as significant).
Startle response and PPI were measured using startle chambers from Hamilton Kinder (Poway, Calif., USA). Each chamber contained a plexiglas rectangle with an adjustable ceiling housed in a ventilated, sound-attenuated cubicle. […]

Sprague Dawley rats = test: Catalepsy bar test in rats (EPS predictor)
Experimental: One of the adverse effects of antipsychotic medications is extrapyramidal movement disorder syndrome attributed to blockade of the dopamine D2 receptors. Extrapyramidal movement disorder can be predicted by the cataleptic response elicited by an antipsychotic in a rodent. To assess whether Compound 1 alone evoked cataleptic responses or interfered with the cataleptic effect of the antipsychotic, the following set of studies were conducted. The materials and methods used to accomplish the study follow.
Male Sprague Dawley rats (CRL: CD (SD), Charles River Laboratories, Omaha, Nebr.) weighing 300-325 g were used for the experiment.
Rats were handled and habituated to the testing room before starting. […] The degree of catalepsy was measured by gently placing both forepaws over a metal bar (1.1 cm. diameter suspended 8 cm. above the table top). The time in seconds until the rat took both paws off the bar was recorded, with a maximum cut-off of 300 seconds. […] Alternately, any catalepsy trial time that was greater than 15 seconds (up to 300 seconds) was recorded.
Rats were handled and habituated to the testing room before starting. […] The degree of catalepsy was measured by gently placing both forepaws over a metal bar (1.1 cm. diameter suspended 8 cm. above the table top). The time in seconds until the rat took both paws off the bar was recorded, with a maximum cut-off of 300 seconds. […]

O=C1CCc2ccc(OCCCCN3CCN(c4cccc(Cl)c4Cl)CC3)cc2N1 [Arpiprazole]
Optimal Dose and/or Minimally Effective Dose [1]: 15 mg/day

CN1CCN(C2=Nc3cc(Cl)ccc3Nc3ccccc32)CC1 [Clozapine, 8-chloro-11-(4-methyl-1-piperazinyl)-5H-dibenzo[b,e][1,4]diazepine]
dose at which efficacy was observed in DBA2 mouse PPI (DBA/2J mice): 3 mg/kg
Optimal Dose and/or Minimally Effective Dose [1]: 300 to 400 mg/day
Dose of Increased Side Effect Risk ([1]; low risk for seizures): <300 mg/day
Dose of Increased Side Effect Risk ([1]; moderate risk for seizures): 300 to 599 mg/day

c1cc2cc(-c3ccc(O[C@H]4CN5CCC4CC5)nn3)ccc2[nH]1 [Compound 1]
effect on PPI in combination with maximally efficacious haloperidol (DBA/2J mice; Compound 1 0.04-4.0 mg/kg i.p. 10 minutes prior to maximally efficacious dose of haloperidol, FIG. 5): significant potentiation of effects; also recorded: does not interfere with the efficacy of haloperidol
effect on PPI in combination with sub efficacious risperidone (DBA/2J mice; Compound 1 (0.04 mg/kg) + risperidone 0.1 mg/kg, FIG. 2): a maximally efficacious response is achieved; also recorded: boosting the effect of a sub efficacious dose of risperidone
effect on PPI in combination with sub efficacious haloperidol (DBA/2J mice; Compound 1 (0.04-4.0 mg/kg) + haloperidol 0.3 mg/kg, FIG. 4): more efficacious; also recorded: boosting the effect of a sub efficacious dose of haloperidol
effect on PPI, alone (DBA/2J mice; Compound 1 alone at 0.04 mg/kg, FIG. 2): does not have an effect

c1ccc(-c2ccc(N3CC4CNCC4C3)nn2)cc1 (centres unmarked) [Compound 2, 2-(6-phenylpyridazin-3-yl)octahydropyrrolo[3,4-c]pyrrole]
effect on PPI in combination with sub efficacious risperidone (DBA/2J mice; Compound 2 0.4-4.0 mg/kg + risperidone 0.1 mg/kg, FIG. 7): attained maximal efficacy; also recorded: potentiates the efficacy of risperidone
effect on PPI, alone (DBA/2J mice; Compound 2 alone 0.04-4.0 mg/kg, FIG. 6): no effect
effect on risperidone-induced catalepsy (Sprague Dawley rats; Compound 2 4.0 mg/kg i.p. + risperidone 2.5 mg/kg i.p., FIG. 11): did not significantly alter cataleptic behavior of risperidone

O=C(N[C@H]1CN2CCC1CC2)c1ccc(Cl)cc1.O=C(O)/C=C/C(=O)O [Compound 3, N-(3R)-1-azabicyclo[2,2,2]oct-3-yl-4-chlorobenzamide fumarate]
effect on PPI in combination with sub efficacious risperidone (DBA/2J mice; Compound 3 1.0-10.0 mg/kg + risperidone 0.1 mg/kg, FIG. 9, fumarate): attained maximal efficacy; also recorded: boosting the effect of a sub efficacious dose of risperidone
effect on PPI, alone (DBA/2J mice; Compound 3 alone 1.0-10.0 mg/kg, FIG. 8): no effect
effect on risperidone-induced catalepsy (Sprague Dawley rats; Compound 3 3.0 mg/kg i.p. + risperidone 2.5 mg/kg i.p., FIG. 12): did not significantly alter cataleptic behavior of risperidone

O=C(CCCN1CCC(O)(c2ccc(Cl)cc2)CC1)c1ccc(F)cc1 [Haloperidol, 4-(4-[4-chlorophenyl]-4-hydroxy-1-piperidinyl)-1-(4-fluorophenyl)-1-butanone]
dose at which efficacy was observed in DBA2 mouse PPI (DBA/2J mice): 3 mg/kg
Optimal Dose and/or Minimally Effective Dose [1]: 2 to 5 mg/day
Dose of Increased Side Effect Risk ([1]; risk for EPS): ~3 mg

Cc1cc2c(s1)Nc1ccccc1N=C2N1CCN(C)CC1 [Olanzapine, 2-methyl-4-(4-methyl-1-piperazinyl)-10H-thieno[2,3-b][1,5]benzodiazepine]
EPS risk: dose of augmented risk [1]: risk >7.5 mg/kg/day
Optimal Dose and/or Minimally Effective Dose [1]: 10 to 20 mg/day

Cc1nc2n(c(=O)c1CCN1CCC(c3noc4cc(F)ccc34)CC1)CCCC2 [Risperidone, 3-[2-[4-(6-fluoro-1,2-benzisoxazol-3-yl)-1-piperidinyl]ethyl]-6,7,8,9-tetrahydro-2-methyl-4H-pyrido[1,2-a]pyrimidin-4-one]
Dose of Increased Side Effect Risk ([1]; EPS risk): ≧6 mg/day
EPS risk: dose of augmented risk [1]: risk >6 mg/kg/day
Optimal Dose and/or Minimally Effective Dose [1]: 4 to 6 mg/day

O=C1Cc2cc(CCN3CCN(c4nsc5ccccc45)CC3)c(Cl)cc2N1 [Ziprasidone, 5-[2-[4-(1,2-benzoisothiazol-3-yl)-1-piperazinyl]ethyl]-6-chloro-1,3-dihydro-2H-indol-2-one]
Dose of Increased Side Effect Risk ([1]; EPS risk): >80 mg/day
EPS risk: dose of augmented risk [1]: risk >80 mg/kg/day
Optimal Dose and/or Minimally Effective Dose [1]: 120 mg/day
